Earlier results in EP0540813B1, “Sustained release formulations of acetazolamide” (AMERICAN CYANAMID COMPANY, priority 1991, dated 1993).

Conditions: reported in the literature

CC(=O)Nc1nnc(S(N)(=O)=O)s1 [acetazolamide, N-(5-sulphamoyl-1,3,4-thiadiazol-2-yl)acetamide]
plasma levels considered toxic: above 30 µg/ml | therapeutic plasma range: 5 to 10 µg/mL
